According to patent publication US6407132B1, “Substituted imidazole derivatives and their use as histamine H3 receptor ligands” (James Black Foundation Limited, priority 1997, dated 2002):

Key:
Histamine H3 receptor [1] = molecular target: T1, Histamine H3 receptor (Cavia porcellus, UniProt Q9JI35); assay: Histamine H3 Radioligand Binding Assay - Guinea Pig Cortex ([3H]-R-α-methylhistamine); parameters: The cortex was dissected, weighed and homogenised in ice-cold 20 mM Hepes-NaOH buffer; from tissue; host or cells: guinea pig brain cortex membranes; conditions: guinea pig cortex membranes; 0.1 nM [3H]-R-α-methylhistamine; typical variance ±0.12 log units; read-out: pKI (binding assay) - cortex (converted)
Description: Histamine H3 Radioligand Binding Assay—Guinea Pig Cortex
Male Dunkin Hartley guinea pigs (200-300 g) were used. The whole brain was removed and immediately placed in ice-cold 20 mM Hepes-NaOH buffer (pH7.4 at 21±3° C.). The cortex was dissected, weighed and homogenised in ice-cold 20 mM Hepes-NaOH buffer (pH7.4 at 21±3° C.) (50 ml/guinea-pig cortex) using a polytron (Kinematica AG, PT-DA 3020/2TS, 3×3s). The homogenate was centrifuged at 100×g for 5 min and the supernatants pooled and stored at 4° C. The pellets were rehomogenised in fresh ice-cold buffer (80 ml) and recentrifuged (100×g for 5 min). The supernatants were pooled and pellets rehomogenised and recentrifuged (100×g for 5 min). All supernatants were pooled and centrifuged at 39,800×g for 12 min at 4° C. The final pellet was resuspended in 20 mM Hepes-NaOH buffer (pH7.4 at 21±3° C.) to a tissue concentration of 7.5 mg.ml^−1, using a teflon-in-glass homogeniser.
Incubation Conditions and Data Analysis
These were essentially identical to those used for the guinea pig ileum myenteric plexus assay described above, except that the final assay concentration of [^3H]-R-α-methylhistamine was 0.1 nM. Typical variance in this binding assay is ±0.12 log units.

Histamine H3 receptor [2] = molecular target: T1, Histamine H3 receptor; assay: ileal longitudinal muscle, myenteric plexus functional assay (shift of R-(α)-methylhistamine E/[A] curves, Schild); type: cell-based; parameters: the longitudinal muscle layer and adhering myenteric plexus was teased away; from tissue; host or cells: guinea pig ileal longitudinal muscle with myenteric plexus; conditions: guinea pig ileum longitudinal muscle myenteric plexus, electrically stimulated; antagonism of R-(α)-methylhistamine; typical variance ±0.15 log units; read-out: pKB (functional assay) - ileum (converted)
Description: The biological activity of the compounds of the examples was measured using the ileal longitudinal muscle, myenteric plexus assay described by Paton and Aboo Zar (J. Physiol. 1968, 194, 13-33). Male Dunkin-Hartley guinea pigs (250-300 g) were employed. Briefly, a 50 cm portion of ileum proximal to the caecum was removed, after discarding the terminal 20 cm. Ileal segments (3 cm) were cleaned by passing Krebs-Henseleit buffer containing 3 μM mepyramine gently through the ileum using a Pasteur pipette (size: 13.8 cm length, 0.65 cm diameter). To avoid unnecessary damage to the tissue, Krebs-Henseleit buffer was passed through the ileal segment, while it was lying horizontally on a petri dish. Therefore, the ileum was not over-distended and the buffer flowed through with ease. Each segment was then passed over a Pasteur pipette and the longitudinal muscle layer and adhering myenteric plexus was teased away using moist cotton wool, by stroking tangentially away from the mesenteric attachment. The tissues were suspended in 20 ml organ baths containing Krebs-Henseleit buffer at 37±1° C. and gassed with 95% CO2/5% O2. The tissues were ligated to two parallel stainless steel wires, situated between two platinum electrodes (0.76 cm length, 0.06 cm diameter). All measurements were recorded isometrically (Grass FTO3 transducer). Following an initial loading tension of 1 g, the tissues were stimulated with electrical pulses at a frequency of 0.1 Hz and a pulse duration of 0.5 msec, as described by Kosterlitz & Watt (Br. J. Pharmacol. 1968, 266-276). Initially, the tissues were stimulated at supramaximal (1.3 fold times maximal) voltage for a period of 30 min and then the tissues were washed and re-stimulated. A “sighter dose” of the selective histamine H3-receptor agonist, R-(α)-methylhistamine (0.3 μM) (Arrang et al. Nature, 1987, 117-123), was administered. Upon generation of response, the “sighter dose” was removed from the tissues by “washout” (6 washes over 60 min) and during this period the electrical stimulation was switched off. The tissues were then re-stimulated and allowed to stabilise prior to the addition of drug treatments, which were allocated on a randomised block basis to the organ baths. Following the incubation period, a single cumulative E/[A] curve was obtained. The experimental E/[A] curve data was expressed as the percentage inhibition of the peak height of electrically-stimulated contraction. Antagonist affinity values were calculated from the degree of rightward shift of the R-(α)-methylhistamine E/[A] curves using Schild's methods (Arunlakshana & Schild Br. J. Pharmacol. 1959, 48-58). Typical variance in this assay is ±0.15 log units.

Histamine H3 receptor [3] = molecular target: T1, Histamine H3 receptor; assay: Histamine H3 Radioligand Binding Assay - Guinea Pig Ileum ([3H]-R-α-methylhistamine); parameters: The cortex was dissected, weighed and homogenised in ice-cold 20 mM Hepes-NaOH buffer; from tissue; host or cells: guinea pig brain cortex membranes; conditions: guinea pig ileum longitudinal muscle myenteric plexus membranes; 3 nM [3H]-R-α-methylhistamine; typical variance 0.12 log units; read-out: pKI (binding assay) - ileum (converted)
Description: Histamine H3 Radioligand Binding Assay—Guinea Pig Ileum
Male Dunkin Hartley guinea pigs (200-300 g) were used. The small intestine was rapidly removed (cut ˜5 cm from caecum and 5 cm from stomach) and placed in ice-cold 20 mM Hepes-NaOH buffer (pH7.4 at 21±3° C.). The tissue was cut into ˜10 cm segments, flushed through with ice-cold 20 mM Hepes-NaOH buffer and placed in a beaker containing fresh buffer at 4° C. 10 cm segments of ileum were threaded onto a glass pipette and the longitudinal muscle myenteric plexus was peeled away from the circular muscle using damp cotton-wool. […]
Guinea pig ileum longitudinal muscle myenteric plexus membranes (400μl) were incubated for 165 min at 21±3° C. in a final volume of 500 μl with 20 mM Hepes-NaOH buffer containing [^3H]-R-α-methylhistamine (50 μl; 3 nM) and competing compound. […] The filters were washed (3×3 ml) with ice-cold 50 mM Tris-HCl (pH6.9 at 21±3° C.), transferred into scintillation vials, 5 ml liquid scintillation cocktail was added and after 4 hours the bound radioactivity was determined by counting (4 min) in a Beckman liquid scintillation counter.
Data are analysed using GraphPad prism and the general equation for a competition curve with variable Hill slope (nH). […]
KD is the equilibrium dissociation constant for the radioligand determined by saturation experiments. […]

T1 sequence (Q9JI35 whole entry): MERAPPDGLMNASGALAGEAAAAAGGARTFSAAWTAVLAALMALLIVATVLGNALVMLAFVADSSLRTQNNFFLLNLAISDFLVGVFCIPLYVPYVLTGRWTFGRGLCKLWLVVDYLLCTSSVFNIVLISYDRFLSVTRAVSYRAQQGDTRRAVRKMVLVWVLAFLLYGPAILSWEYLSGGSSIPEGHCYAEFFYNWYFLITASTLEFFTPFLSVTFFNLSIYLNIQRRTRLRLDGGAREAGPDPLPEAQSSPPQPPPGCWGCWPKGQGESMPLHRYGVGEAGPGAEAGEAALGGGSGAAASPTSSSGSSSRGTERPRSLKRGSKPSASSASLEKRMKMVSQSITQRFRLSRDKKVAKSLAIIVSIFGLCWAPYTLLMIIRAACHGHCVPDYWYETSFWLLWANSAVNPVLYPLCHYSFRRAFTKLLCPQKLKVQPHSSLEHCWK

Ki (Histamine H3 receptor [1]) [nM]	Kb (Histamine H3 receptor [2]) [nM]	Ki (Histamine H3 receptor [3]) [nM]	Compound
372			O=S(=O)(Cc1ccc(Cl)cc1)NCc1cccc(Cc2c[nH]cn2)c1 [Example 6, C-(4-Chloro-phenyl)-N-[3-(1H-imidazol-4-ylmethyl)-benzyl]-methanesulfonamide]
28.8	70.8	141	O=S(=O)(Cc1ccc(Cl)cc1)NCc1ccc(Cc2c[nH]cn2)cc1 [Example 2, C-(4-Chlorophenyl)-N-[4-(1H-imidazol-4-ylmethyl)-benzyl]-methanesulfonamide]
288	955		O=S(=O)(Cc1ccc(Cl)cc1)NCCc1ccc(Cc2c[nH]cn2)cc1 [Example 7, C-(4-Chloro-phenyl)-N-{2-[4-(1H-imidazol-4-ylmethyl)-phenyl]-ethyl}-methanesulfonamide]

The remaining lines, values behind:

Compound	Ki (Histamine H3 receptor [1]) [nM]	Kb (Histamine H3 receptor [2]) [nM]	Ki (Histamine H3 receptor [3]) [nM]
O=S(=O)(NCc1ccc(Cc2c[nH]cn2)cc1)c1ccc2ccccc2c1 [Example 1]	324	229	339
O=S(=O)(Cc1ccc(Cl)cc1)Nc1ccc(-c2c[nH]cn2)cc1 [Example 5, C-(4-Chloro-phenyl)-N-[4-(1H-imidazol-4-yl)-pheriyl]-methanesulfonamide]	1410		
O=S(=O)(Cc1ccc(Cl)cc1)Nc1ccc(Cc2c[nH]cn2)cc1 [Example 4, C-(4-Chloro-phenyl)-N-[4-(1H-imidazol-4-ylmelhyl)-phenyl]-methanesulfonamide]	93.3	407	
O=S(=O)(NCc1ccc(Cl)cc1)NCc1ccc(Cc2c[nH]cn2)cc1 [Example 3, N-(4-Chloro-benzyl)-N′-[4-(1H-imidazol-4-ylmethyl)-benzyl]-sulfamide]	15.8	112	
